Measurements from ChEMBL document CHEMBL3785014, “A Binding Site on IL-17A for Inhibitory Macrocycles Revealed by Hydrogen/Deuterium Exchange Mass Spectrometry” (J Med Chem, 2016).
The source made the active and inactive calls.

Columns and labels:
[1] = biological target: Interleukin-17A (Homo sapiens) (UniProt Q16552); assay: Binding affinity to recombinant human IL-17A assessed as protection from deuterium uptake at 92 to 99 residues at 10 uM after 10 to 3600 secs by HDX-MS
[2] = biological target: Interleukin-17A (Homo sapiens) (UniProt Q16552); assay: Binding affinity to recombinant human IL-17A assessed as protection from deuterium uptake at 90 to 101 residues at 10 uM after 10 to 3600 secs by HDX-MS
[3] = biological target: Interleukin-17A (Homo sapiens) (UniProt Q16552); assay: Binding affinity to recombinant human IL-17A assessed as protection from deuterium uptake at 99 to 103 residues at 10 uM after 10 to 3600 secs by HDX-MS
[4] = biological target: Interleukin-17A (Homo sapiens) (UniProt Q16552); assay: Binding affinity to recombinant human IL-17A assessed as increase in deuterium uptake at 102 to 116 residues at 10 uM after 10 to 3600 secs by HDX-MS
[5] = biological target: Interleukin-17A (Homo sapiens) (UniProt Q16552); assay: Binding affinity to recombinant human IL-17A assessed as protection from deuterium uptake at 58 to 72 residues at 10 uM after 10 to 3600 secs by HDX-MS
[6] = biological target: Interleukin-17A (Homo sapiens) (UniProt Q16552); assay: Binding affinity to recombinant human IL-17A assessed as increase in deuterium uptake at 103 to 114 residues at 10 uM after 10 to 3600 secs by HDX-MS
[7] = biological target: Interleukin-17A (Homo sapiens) (UniProt Q16552); assay: Binding affinity to recombinant human IL-17A assessed as protection from deuterium uptake at 58 to 71 residues at 10 uM after 10 to 3600 secs by HDX-MS
[8] = biological target: Interleukin-17A (Homo sapiens) (UniProt Q16552); assay: Binding affinity to recombinant human IL-17A assessed as protection from deuterium uptake at 92 to 101 residues at 10 uM after 10 to 3600 secs by HDX-MS
[9] = biological target: Interleukin-17A (Homo sapiens) (UniProt Q16552); assay: Binding affinity to recombinant human IL-17A assessed as increase in deuterium uptake at 100 to 116 residues at 10 uM after 10 to 3600 secs by HDX-MS
[10] = biological target: Interleukin-17A (Homo sapiens) (UniProt Q16552); assay: Binding affinity to recombinant human IL-17A assessed as increase in deuterium uptake at 102 to 120 residues at 10 uM after 10 to 3600 secs by HDX-MS
[11] = biological target: Interleukin-17A (Homo sapiens) (UniProt Q16552); assay: Binding affinity to recombinant human IL-17A assessed as increase in deuterium uptake at 104 to 116 residues at 10 uM after 10 to 3600 secs by HDX-MS

Measured: Activity

Sequence of Interleukin-17A (Homo sapiens) (Q16552 whole entry, the tested form may be a part): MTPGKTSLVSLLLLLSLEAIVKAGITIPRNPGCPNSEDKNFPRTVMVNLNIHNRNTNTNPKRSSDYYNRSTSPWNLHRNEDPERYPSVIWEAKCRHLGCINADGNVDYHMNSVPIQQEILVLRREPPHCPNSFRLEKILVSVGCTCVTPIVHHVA

O=C1CNC(=O)[C@@H](Cc2ccc(NC(=O)[C@H](Cc3ccccc3Cl)NC(=O)Cc3ccccc3)cc2)NC(=O)CC2(CCCC2)CC(=O)NCCCCCN1
active: [1] | [2] | [3] | [4] | [5] | [6] | [7] | [8] | [9] | [10] | [11]

O=C1CNC(=O)[C@@H](Cc2ccc(NC(=O)[C@H](Cc3ccccc3Cl)NC(=O)Cc3ccccc3)cc2)NC(=O)CC2(CCCC2)CC(=O)N[C@H](C(=O)O)CCCCN1
active: [1] | [2] | [3] | [4] | [5] | [6] | [7] | [8] | [9] | [10] | [11]

O=C1CC2(CCCC2)CC(=O)N[C@H](Cc2ccc(NC(=O)[C@H](Cc3ccccc3Cl)NC(=O)Cc3cccc(O)c3)cc2)C(=O)NCCOCCOCCN1
active: [1] | [2] | [3] | [4] | [5] | [6] | [7] | [8] | [9] | [10] | [11]
